Assay results published in US4361578A, “D-Homosteroids” (priority 1980, dated 1982).

System: 5α-reductase
Test: Inhibition of 5α-reductase in vivo (castrated male rats, organ weights and LH/FSH after 10 daily doses)
Parameters: species or system albino rats
Protocol: The in vivo testing was carried out as follows:
Adult male albino rats weighing 200 g were castrated. Two hours later they received the first of 10 daily dosages of the test substance suspended in 0.5% carboxymethylcellulose, 0.4% Tween 80 and 0.9% benzyl alcohol in physiological sodium chloride solution. Three hours after the last medication on the tenth day of treatment, the animals were decapitated, the blood from the body was collected, and the seminal vesicles, the ventral prostate and the Levator ani muscle were removed and weighed. The results are given as ng of NIAMDD-RP-1/ml.
VP: Ventral prostrate, SV: Seminal vesicle, MLA: Levator ani muscle
LH: Luteinizing hormone, FSH: Follicle stimulating hormone

[1] = T sc 0.5 mg/kg alone, experiment with F
[2] = T sc 0.5 mg/kg alone, experiment with L po
[3] = Testosterone sc 0.5 mg/kg alone, experiment with D
[4] = TP 0.5 mg/kg alone, experiment with A
[5] = TP sc 0.5 mg/kg alone, experiment with L sc
[6] = A sc 15 mg/kg + TP sc 0.5 mg/kg
[7] = L sc 15 mg/kg + TP sc 0.5 mg/kg

Q: Which “LH (luteinizing hormone)” value [1] does the source give for `C[C@]12CC[C@H]3[C@@H](CCC4=CC(=O)CC[C@@]43C)[C@@H]1CC[C@@H]2O` [T, Testosterone] here?
A: The value was 96 ± 37 ng/mL.

Q: And the “MLA (Levator ani muscle weight)” value [1]?
A: The value was 126 ± 7 mg.

Q: And the “SV (seminal vesicle weight)” value [1]?
A: Its value is 85 ± 7 mg.

Q: What about the “VP (ventral prostate weight)” value [1] of the same compound?
A: Its value is 128 ± 12 mg.

Q: And the “MLA (Levator ani muscle weight)” value [2]?
A: The value was 109 ± 8 mg.

Q: What about the “SV (seminal vesicle weight)” value [2] of the same compound?
A: Its value is 92 ± 13 mg.

Q: What about the “VP (ventral prostate weight)” value [2] of the same compound?
A: The value was 96 ± 10 mg.

Q: What about the “FSH (follicle stimulating hormone)” value [3] of the same compound?
A: Its value is 1206 ± 114 ng/mL.

Q: What about the “LH (luteinizing hormone)” value [3] of the same compound?
A: The value was 104 ± 25 ng/mL.

Q: And the “MLA (Levator ani muscle weight)” value [3]?
A: Its value is 108 ± 5 mg.

Q: And the “SV (seminal vesicle weight)” value [3]?
A: Its value is 65 ± 5 mg.

Q: What about the “VP (ventral prostate weight)” value [3] of the same compound?
A: Its value is 112 ± 10 mg.

Q: Which “FSH (follicle stimulating hormone)” value [4] does the source give for `CCC(=O)O[C@H]1CC[C@H]2[C@@H]3CCC4=CC(=O)CC[C@]4(C)[C@H]3CC[C@]12C` [TP, Testosterone propionate] here?
A: The value was 783 ± 167 ng/mL.

Q: What about the “LH (luteinizing hormone)” value [4] of the same compound?
A: The value was 101 ± 36 ng/mL.

Q: And the “MLA (Levator ani muscle weight)” value [4]?
A: Its value is 137 ± 7 mg.

Q: What about the “SV (seminal vesicle weight)” value [4] of the same compound?
A: The value was 215 ± 13 mg.

Q: What about the “VP (ventral prostate weight)” value [4] of the same compound?
A: Its value is 160 ± 18 mg.

Q: And the “FSH (follicle stimulating hormone)” value [5]?
A: Its value is 915 ± 37 ng/mL.

Q: And the “LH (luteinizing hormone)” value [5]?
A: The value was 121 ± 12 ng/mL.

Q: And the “MLA (Levator ani muscle weight)” value [5]?
A: The value was 75 ± 4 mg.

Q: And the “SV (seminal vesicle weight)” value [5]?
A: The value was 69 ± 3 mg.

Q: And the “VP (ventral prostate weight)” value [5]?
A: Its value is 108 ± 6 mg.

Q: With `C[C@]12CC[C@H]3[C@@H](CCC4=CC(=O)CC[C@@]43C)[C@@H]1CCC[C@@H]2C(=O)O` [Test substance A, 3-oxo-D-homo-androst-4-ene-17aα-carboxylic acid] as the compound, how does the “FSH (follicle stimulating hormone)” value [6] read?
A: Its value is 1268 ± 125 ng/mL.

Q: And the “LH (luteinizing hormone)” value [6]?
A: Its value is 283 ± 41 ng/mL.

Q: And the “MLA (Levator ani muscle weight)” value [6]?
A: The value was 118 ± 8 mg.

Q: And the “SV (seminal vesicle weight)” value [6]?
A: The value was 157 ± 15 mg.

Q: And the “VP (ventral prostate weight)” value [6]?
A: Its value is 116 ± 11 mg.

Q: Which results are given for `COC(=O)[C@H]1CCC[C@H]2[C@@H]3CCC4=C(Cl)C(=O)CC[C@]4(C)[C@H]3CC[C@]12C` [Test substance D, methyl 4-chloro-3-oxo-D-homo-androst-4-ene-17aβ-carboxylate]?
A: FSH (follicle stimulating hormone) (D sc 10 mg/kg + T sc 0.5 mg/kg): 1325 ± 93 ng/mL; LH (luteinizing hormone) (D sc 10 mg/kg + T sc 0.5 mg/kg): 244 ± 45 ng/mL; MLA (Levator ani muscle weight) (D sc 10 mg/kg + T sc 0.5 mg/kg): 83 ± 6 mg; SV (seminal vesicle weight) (D sc 10 mg/kg + T sc 0.5 mg/kg): 51 ± 9 mg; VP (ventral prostate weight) (D sc 10 mg/kg + T sc 0.5 mg/kg): 95 ± 10 mg

Q: For `C[C@]12CCC(=O)C=C1CC[C@@H]1[C@@H]2CC[C@@]2(C)[C@H]1CC=C[C@@]21CCCO1` [Test substance F, 4,5-dihydrospiro[furan-2(3H),17'a(β1)-D-homo-androsta-4,16-dien]-3'-one], which “LH (luteinizing hormone)” value (F sc 10 mg/kg + T sc 0.5 mg/kg) is on record?
A: Its value is 88 ± 15 ng/mL.

Q: What about the “MLA (Levator ani muscle weight)” value (F sc 10 mg/kg + T sc 0.5 mg/kg) of the same compound?
A: Its value is 105 ± 6 mg.

Q: What about the “SV (seminal vesicle weight)” value (F sc 10 mg/kg + T sc 0.5 mg/kg) of the same compound?
A: The value was 66 ± 4 mg.

Q: And the “VP (ventral prostate weight)” value (F sc 10 mg/kg + T sc 0.5 mg/kg)?
A: The value was 93 ± 10 mg.

Q: How did the “MLA (Levator ani muscle weight)” value (L po 30 mg/kg + T sc 0.5 mg/kg) turn out when `COC(=O)C1=CCC[C@H]2[C@@H]3CCC4=CC(=O)CC[C@]4(C)[C@H]3CC[C@]12C` [Test substance L, methyl 3-oxo-D-homo-androsta-4,17-diene-17a-carboxylate] was run?
A: The value was 88 ± 17 mg.

Q: And the “SV (seminal vesicle weight)” value (L po 30 mg/kg + T sc 0.5 mg/kg)?
A: The value was 68 ± 13 mg.

Q: What about the “VP (ventral prostate weight)” value (L po 30 mg/kg + T sc 0.5 mg/kg) of the same compound?
A: The value was 81 ± 16 mg.

Q: And the “FSH (follicle stimulating hormone)” value [7]?
A: The value was 1099 ± 94 ng/mL.

Q: What about the “LH (luteinizing hormone)” value [7] of the same compound?
A: Its value is 163 ± 30 ng/mL.

Q: What about the “MLA (Levator ani muscle weight)” value [7] of the same compound?
A: The value was 67 ± 6 mg.

Q: What about the “SV (seminal vesicle weight)” value [7] of the same compound?
A: Its value is 52 ± 1 mg.

Q: And the “VP (ventral prostate weight)” value [7]?
A: Its value is 80 ± 6 mg.
